Consider one compound from patent US20250129083A1, “IMIDAZOTETRAZINE COMPOUNDS AND TREATMENT OF TMZ-RESISTANT CANCERS” (THE BOARD OF TRUSTEES OF THE UNIVERSITY OF ILLINOIS, priority 2022, published 2025).

What is called MTD is the highest dose tested that stayed within the study's limit of toxicity.

Data set [1] can be described thus: Solubility in IV formulations. The data set is classed as physicochemical. The note with it: IV formulation.
In a further data set the test system is GL261 MGMT+ cells. The data set is described as follows: Cell viability assay (Alamar Blue, 7 days), GL261 MGMT+. The note with it: Mus musculus, GL261, 168 h; MGMT (+) MMR (+); 7 days; 1500 c/w; SEM, n=3; read-out: Activity, GL261 MGMT+. The data set is classed as cell-based. How it is done:
To further explore the ability of CPZ to evade MGMT-mediated resistance, MGMT-expressing T98G cells were pretreated with MGMT inhibitor O6BG followed by treatment with TMZ or CPZ. […] This cell death potentiation by TMZ upon treatment with an MGMT inhibitor was also observed in MGMT-expressing cell lines U118MG and RKO, whereas the efficacy of CPZ was again unaffected. For MGMT (−)/MMR (−) HCT116 cells, negligible potentiation of TMZ cytotoxicity was observed upon pretreatment with O6BG, confirming that loss of MMR capacity, not MGMT expression, was responsible for resistance to TMZ in HCT116 cells. Additionally, human MGMT was knocked into the MGMT-negative mouse glioma cell line, GL261, establishing the novel cell line GL261 MGMT+.
(§1) Cell Culture and Reagents. All cell lines were grown in a 37° C., 5% CO2, humidified environment, in media containing 1% penicillin/streptomycin. Stable cell line generation of GL261 MGMT+ was purchased from Creative Biogene. Cell culture conditions are as follows: cell lines U87, T98G, and RKO were grown in EMEM with 10% FBS. D54, GL261, GL261 MGMT+, and U118MG cell lines were grown in DMEM with 10% FBS. HCT116 cells were grown in RMPI with 10% FBS. D341 Med cells were grown in EMEM with 20% FBS. Temozolomide (TMZ) was purchased from AK Scientific. TMZ analogues were synthesized as described below. Compounds were dissolved in DMSO (1% final concentration, Fisher Chemical) for cell culture studies.
(§2) Cell Viability Assays. Cells were harvested, seeded in a 96-well plate and allowed to adhere. After three hours, compound was added to each well in DMSO (1% final concentration). Cells were incubated for seven days (unless otherwise noted) before viability was assessed by the Alamar Blue assay. Raptinal (20 μM) was used as a dead control.
(§3) Plated 1500 c/w for GL261; 600 c/w for U87; 600 c/w for U118MG; 1500 c/w for GL261 MGMT+ Incubated ovn and added 1 μL of compound in DMSO the next day. Incubated over 7 days; added Alamar Blue to assess cell viability and used 10 μM Raptinal as dead control. Error is SEM, n=3.
(In general: The colour change of resazurin is a common sign of viable cells or microbes.)

Data set [2] can be described thus: Syngeneic subcutaneous model. The data set is classed as in vivo. As to conditions: C57BL/6 mice, 1×10^6 cells; 50 mg/kg IV 1×/day over 5 days from day 5. How it is done:
FIG. 10A-B. Syngeneic Subcutaneous Model (A, B). TABZ and TMZ in vivo: C57BL/6 mice were inoculated with 1×10^6 cells and treated xl/day over 5 days with either vehicle, TMZ, or TABZ (via IV, 50 mg/kg, starting on day 5).

A further data set concerns U87 GBM cell line. The data set can be described thus: Cell viability assay (Alamar Blue, 7 days), U87. The data set is classed as cell-based, human. The note with it: Homo sapiens, 168 h, MGMT (−) MMR (+), 600 c/w, SEM, n=3, read-out: Activity, U87. How it is done: as §1, §2, §3
The next data set concerns U118MG cells. The data set can be described thus: Cell viability assay (Alamar Blue, 7 days), U118MG. The data set is classed as cell-based. As to conditions: Homo sapiens, U-118-MG, 168 h, MGMT (+) MMR (+), 600 c/w, SEM, n=3. How it is done: as §1, §2, §3
Another data set concerns HCT116 cells. The data set is described as follows: Cell viability assay (Alamar Blue, 7 days), HCT116. The data set is classed as cell-based. The note with it: Homo sapiens, HCT-116, 168 h; MGMT (−) MMR (−); 7 days; read-out: Activity, HCT116. How it is done:
as §1, §2

The subject of a further data set is GL261 cells. The data set is described as follows: Cell viability assay (Alamar Blue, 7 days), GL261. The data set is classed as cell-based. As to conditions: Mus musculus, GL261, 168 h; MGMT (−) MMR (+); 7 days; 1500 c/w; SEM, n=3; read-out: Activity, GL261. How it is done:
as §1, §2, §3

Another data set concerns cancer cells. The data set can be described thus: Rapid cancer cell death phenotype. The data set is classed as cell-based. As to conditions: relative to TMZ. The source says:
FIG. 8A-C. Rapid Cancer Cell Death Phenotype.

Data set [3] concerns S. typhimurium TA100 strain. The data set can be described thus: Ames test, TA100. The data set is classed as cell-based. The note with it: 30 μM. How it is done: (§4) Next, we measured the mutagenicity of CPZ versus TMZ. TMZ and other DNA methylating chemotherapies are known mutagens, inducing G:C→A:T mutations due to erroneous recognition of O^6-methylguanine. […] CPZ and TMZ (at 30 μM) were also assessed in the E. coli WP2 uvrA pKM101 strain, which is considered one of the more sensitive Ames tester strains available.
Ames Test. Compounds were assessed at the indicated concentrations in the TA100 tester strain using the Muta-ChromoPlate 96-well microplate version of the Ames test (Environmental Bio-Detection Products, Prod. No. 5051) according to manufacturer's instructions. In brief, TA100 S. typhimurium bacteria were grown overnight and plated with compound, growth medium, and indicator (no S9 activation) in 96 well plates. Bacteria were incubated for 5 days before the number of wells per 96 well plate containing revertant colonies were identified colorimetrically.
For orientation: In the Ames test, an excess of revertant colonies over the control signals mutagenicity.

Data set [4] can be described thus: Hepatic metabolism: stability in mouse liver microsomes. The data set is classed as in vitro ADME.
Data set [5] in a line: Hydrolytic stability studies. The data set is classed as physicochemical. The note with it: PBS, pH 7.4, 37° C.; HPLC. How it is done: Hydrolytic Stability Studies. Compound (100 μM) was incubated at 37° C. in PBS at pH 7.4 (unless otherwise noted). At the indicated time point, an aliquot was collected and analyzed by HPLC. Compound peaks were integrated and compared to the integration at to calculate the percentage of prodrug remaining.

Data set [6] in a line: Maximum tolerated dose / tolerability in mice. The note with it: for MTD at 5 days: in vivo, 66 mg/kg, once per day over 5 days. The data set is classed as in vivo.
The test system of data set [7] is RKO colon cancer cell line. The data set is described as follows: Cell viability assay (Alamar Blue, 7 days), RKO. The data set is classed as cell-based. The note with it: 168 h; 7 days; read-out: Activity, RKO. How it is done: as §1, §2
For data set [8], the system named is E. coli WP2 uvrA pKM101 strain. The data set is described as follows: Ames test, E. coli WP2 uvrA pKM101. The note with it: 30 μM. The data set is classed as cell-based. How it is done:
as §4

The next data set is described as follows: Brain tissue binding. The data set is classed as in vitro ADME. The note with it: 10 uM, 1 h at 37 C in brain tissue homogenate.
The mark [9] stands for this setting: 6.6 mg/mL solution for 200 μL injection.

Like-named read-outs stand apart in the source and are kept apart here.

On to `CC#CCn1nnc2c(C(=O)N(C)C)ncn2c1=O` [TABZ, 3-(but-2-yn-1-yl)-N,N-dimethyl-4-oxo-3,4-dihydroimidazo[5,1-d][1,2,3,5]tetrazine-8-carboxamide], for which the “Solubility in 20/80 DMSO/PBS” value in data set [1] (5 mg/mL solution for 100 μL injection) was “Soluble*”. In [1] (setting [9]), the “Solubility in 15/7/5/73 DMSO/NMP/T20/20% SPE-βCD” value is “Soluble >25 min”. For the same compound, in data set [1] (setting [9]), the “Solubility in 15/10/75 DMSO/NMP/20% SPE-βCD” value is recorded as “Soluble 20 min”. Further, the IC50 with GL261 MGMT+ cells was found to be 18 ± 1 µM; in the data set with U87 GBM cell line it was 16 ± 2 µM; with U118MG cells, 24 ± 5 µM; in the data set on HCT116 cells, 6 ± 0.42 µM; with GL261 cells, 35 ± 2 µM; in [7], 9 ± 1 µM. Also, the Tumor growth result in data set [2] is listed as “no exacerbation”. Also, the “Speed of cell death induction” value in the data set on cancer cells was “induce cell death quickly relative to TMZ”. For the same compound, the “Mutagenicity, TA100” value in data set [3] is “non-mutagenic”. Besides, the “Stability (2 h, with MLM)” value in data set [4] (percentage remaining relative to t0, mouse liver microsomes, SEM, n ≥ 2) was found to be 77 ± 2%. In addition, the “Stability (2 h, no MLM)” value in data set [4] (percentage remaining, microsomes replaced with PBS) is 87 ± 2%. The “Hydrolytic stability: percentage of prodrug remaining after 2 hours” value in data set [5] is on record as 31±1%. Also, in [6], the “Tolerated dose, 1×/day via IV injection” value was found to be 50 mg/kg. In addition, the maximal tolerated dose (MTD) at 5 days in [6] (female, C57BL/6, mouse, ip, intraperitoneal, read-out: MTD, I.P.) came to 66 mg/kg; in data set [6] (mouse, intravenous, read-out: MTD, I.V.), 66 mg/kg. Further, in data set [8], the “Mutagenicity, E. coli WP2 uvrA pKM101” value was “non-mutagenic”. For the same compound, the “Brain tissue binding, insoluble fraction, tissue homogenizer” value in “Brain tissue binding” is 40 ± 4%. In the data set “Brain tissue binding”, the “Brain tissue binding, insoluble fraction, ultrasonication” value is reported as 39 ± 4%. Further, in “Brain tissue binding”, the “Brain tissue binding, soluble fraction, tissue homogenizer” value turned out to be 64 ± 4%. Also, the “Brain tissue binding, soluble fraction, ultrasonication” value in “Brain tissue binding” came to 61 ± 4%.
